Literature values as cited in patent US20030018166A1 (priority 2000, published 2003).
Like-named read-outs stand apart in the source and are kept apart here.

Molecular target: T1, M. avium ICL (UniProt P9WKK7)
T1 construct: The proteins were purified by the 6His-tag attached to the N terminus; fused on or other part: N-terminal 6His tag
T1 sequence (P9WKK7 1-428): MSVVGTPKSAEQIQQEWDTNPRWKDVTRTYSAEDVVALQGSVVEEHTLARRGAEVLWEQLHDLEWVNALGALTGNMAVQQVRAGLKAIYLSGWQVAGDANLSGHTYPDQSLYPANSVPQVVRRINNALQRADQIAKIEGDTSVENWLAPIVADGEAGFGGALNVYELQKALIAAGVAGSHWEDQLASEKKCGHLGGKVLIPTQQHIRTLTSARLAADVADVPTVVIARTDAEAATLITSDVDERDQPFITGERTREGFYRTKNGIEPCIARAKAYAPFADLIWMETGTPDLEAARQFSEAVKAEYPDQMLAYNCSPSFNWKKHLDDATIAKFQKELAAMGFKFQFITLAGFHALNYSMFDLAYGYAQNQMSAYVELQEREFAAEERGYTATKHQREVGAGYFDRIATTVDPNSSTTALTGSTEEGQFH
Conditions: Schloss and Cleland, 1982, cited from earlier work

In the case of `O=C(O)CC[N+](=O)[O-]` [3-nitropropionate], the Ki (read-out: Ki) is given as 3 µM.
For `O=C(O)C(=O)CBr` [bromopyruvate, 3-bromopyruvate], the Ki is listed as 120 µM.
